The numbers were not newly measured in patent publication US8709515B1, “Nutritional supplement method” (priority 2009, dated 2014), which cites them from elsewhere.

Structures are written as SMILES.

The test system of series [1] is selenite induced cataracts in rats.
Another series deals with rats. To be noted: one eye with induced increase in intraocular pressure.
For the next series, the system named is albino rats. To be noted: fed in the water to albino rats.

For `O=C(O)CCCCC1CCSS1` (stereo not drawn) [Alpha lipoic acid], the “dose above which it may not be safe” value in the series with cats is listed as “higher than 30 mg/day”.

`O=C(O[C@@H]1Cc2c(O)cc(O)cc2O[C@@H]1c1cc(O)c(O)c(O)c1)c1cc(O)c(O)c(O)c1` [EGCG, Epigallocatechin gallate]: the progression of cataract entry in series [1] is reported as “retards the progression of cataract”. For the same compound, in the series with rats, the retinal neuronal death result is given as “attenuated retinal neuronal death”. In the series with albino rats, the light-induced photoreceptor damage result is reported as “attenuated light-induced photoreceptor damage”.
